Results on 13 molecules are retold here after PMC11377542, “An artificial intelligence accelerated virtual screening platform for drug discovery” (Nature Communications, 2024).

No end group written: not given here. *: point of attachment. Biotin = O=C1N[C@H]2[C@H](CS[C@H]2CCCCC(=O)*)N1

To fix the notation:
T1: GST-tagged kelch repeat domain of human KLHDC2 (amino acid 1-362) (human, UniProt Q9Y2U9 1-362)
T1 construct: kelch repeat domain of human KLHDC2, UniProt Q9Y2U9, amino acids 1-362; A TEV cleavage site lies between GST and KLHDC2; GST was not cleaved for the AlphaLISA and BLI assays; The crystallised construct (22-362, His-TSF cleaved, from E. coli) was used only with the small molecule C29; also called GST-KLHDC2; GST-tagged KLHDC2; source: HighFive insect cells (baculovirus), purified (glutathione …)
T1 sequence (looked up): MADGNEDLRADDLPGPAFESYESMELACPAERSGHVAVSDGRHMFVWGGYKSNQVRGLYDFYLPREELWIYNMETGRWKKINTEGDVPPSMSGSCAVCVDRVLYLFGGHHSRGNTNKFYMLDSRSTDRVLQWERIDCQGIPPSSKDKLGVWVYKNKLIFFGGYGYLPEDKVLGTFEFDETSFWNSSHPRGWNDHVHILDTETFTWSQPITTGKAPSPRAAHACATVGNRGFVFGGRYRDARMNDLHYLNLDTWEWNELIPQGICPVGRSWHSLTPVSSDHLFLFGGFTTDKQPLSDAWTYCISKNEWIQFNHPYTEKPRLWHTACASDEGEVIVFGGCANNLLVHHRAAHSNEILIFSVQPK

T2: KLHDC2 (Homo sapiens, UniProt Q9Y2U9)
T2 construct: human KLHDC2 (UniProt: Q9Y2U9, amino acid 1–362); made in house; host or cells: HighFive insect cells (baculovirus, pFastBac)
T2 sequence (Q9Y2U9 1-362): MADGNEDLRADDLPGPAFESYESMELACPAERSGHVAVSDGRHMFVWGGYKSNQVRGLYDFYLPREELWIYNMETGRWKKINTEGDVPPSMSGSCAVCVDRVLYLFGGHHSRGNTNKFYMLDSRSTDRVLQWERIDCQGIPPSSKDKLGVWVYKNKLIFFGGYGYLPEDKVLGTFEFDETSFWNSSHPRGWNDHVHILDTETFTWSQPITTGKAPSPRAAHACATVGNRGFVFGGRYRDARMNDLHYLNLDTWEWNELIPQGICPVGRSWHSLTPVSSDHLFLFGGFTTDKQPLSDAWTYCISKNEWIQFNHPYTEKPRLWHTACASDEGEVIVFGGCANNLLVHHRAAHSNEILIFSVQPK

B1: N-terminal biotinylated 12 aa SelK degron peptide (peptide)
peptide: Biotin-HLRGSPPPMAGG
notes: diglycine-containing C-end degron of SelK (selenoprotein K), 12 aa; the C-terminal mark is cut off in print; also called SelK C-end degron peptide; biotinylated 12 aa SelK peptide; source: synthetic peptide (Bio-Synthesis, Inc.)

The first test deals with T1, GST-tagged kelch repeat domain of human …. The test can be described thus: AlphaScreen or HTRF; AlphaLISA competition assay: GST-KLHDC2 (3.83 nM) on anti-GST acceptor beads, biotinylated SelK peptide (5.55 nM) on streptavidin donor beads; 25 mM HEPES pH 7.5, 100 mM NaCl, 1 mM TCEP, 0.1% Tween-20, 0.05 mg/ml BSA; small-molecule competitors 15 nM to 1.5 mM. As to conditions: both partners purified.
On to B1, for which the binding result is given as “binds”.

A further test has as its target T2, KLHDC2. Briefly: AlphaLISA competition assay (displacement of SelK C-end degron peptide from GST-KLHDC2). In kind it is binding. As to conditions: IC50, competition with biotinylated 12 aa SelK degron peptide; 12-point titration, n = 3 technical replicates. The source says: We took the top-ranked 1000 compounds and filtered out compounds with low predicted solubility, unsatisfied hydrogen bonds in the bound conformation, and followed by similarity clustering to reduce the redundancy in ligand structures. A total of 54 molecules that passed the filtering and clustering were manually examined for favorable interactions and geometries in PyMol[34]. Finally, 37 compounds were chosen for chemical synthesis. Out of these, 29 compounds were successfully synthesized (Supplementary Fig. 13) and characterized in an AlphaLISA competition assay, in which each compound was tested for its ability to compete with a diglycine-containing SelK C-end degron peptide for binding KLHDC2. […] This single digit μM IC50 was further confirmed in a competition assay using BioLayer Interferometry (Supplementary Fig. 14).
The kelch repeat domain of human KLHDC2 (UniProt: Q9Y2U9, amino acid 1–362) was subcloned into the pFastBac vector with an N-terminally fused glutathione-S-transferase (GST), and a TEV-cleavage site. A recombinant baculovirus was produced and amplified three times in Sf9 monolayer cells to produce P4. The P4 virus was used to infect HighFive suspension insect cell cultures to produce the recombinant GST-KLHDC2 protein. The cells were harvested 2–3 days post-infection, re-suspended, and lysed in lysis buffer (20 mM Tris, pH 8.0, 200 mM NaCl, 5 mM DTT) in the presence of protease inhibitors (1 μg/ml Leupeptin, 1 μg/ml Pepstatin and 100 μM PMSF) using a microfluidizer. The GST-KLHDC2 protein was isolated from the soluble cell lysate by PierceTM Glutathione Agarose (Thermo Scientific). For AlphaLISA competition assays, the GST-tagged KLHDC2 was further purified by Q Sepharose High-Performance resin (GE Healthcare). The NaCl eluates were subjected to a Superdex-200 size exclusion chromatography column (GE Healthcare). All samples were flash-frozen in liquid nitrogen for storage prior to use. For protein crystallization, the kelch repeat domain of human KLHDC2 (amino acids 22–362) was subcloned into the pET vector with an N-terminally fused His-elongation factor Ts (TSF) and a TEV-cleavage site. The His-TSF-KLHDC2 protein was overexpressed and purified from BL21 (DE3) E. coli cells. Bacterial cells transformed with the pET-based expression plasmid were grown in LB broth to an OD600 of 0.8–1 and induced with 0.5 mM IPTG. Cells were harvested, re-suspended, and lysed in lysis buffer (20 mM Tris, pH 8.0, 200 mM NaCl, 20 mM imidazole) in the presence of protease inhibitors (1 μg mL–1 leupeptin, 1 μg mL–1 pepstatin and 100 μM phenylmethylsulfonyl fluoride) using a microfluidizer. The His-TSF-KLHDC2 protein was isolated from the soluble cell lysate by HisPurTM Ni-NTA Superflow Agarose (Thermo Fisher Scientific, Waltham, Massachusetts). After TEV cleavage of the His-TSF, KLHDC2 was further purified by Mono Q™ 5/50 GL (GE Healthcare, Chicago, Illinois). The NaCl eluates were subjected to Superdex-200 size-exclusion chromatography (GE Healthcare). Native mass spectrometry was used to confirm KLHDC2 in its apo form. The samples were concentrated by ultrafiltration to 10–22 mg mL−1. All samples were flash-frozen in liquid nitrogen for storage prior to use.
AlphaLISA assays for determining and measuring protein-protein interactions were performed using an EnSpire reader (PerkinElmer). GST-tagged KLHDC2 was attached to anti-GST AlphaLISA acceptor beads. Synthetic N-terminal biotinylated 12 aa SelK degron peptide ([Biotin]HLRGSPPPMAGG[C) (Bio-Synthesis, Inc.) was immobilized to streptavidin-coated AlphaLISA donor beads. The donor and acceptor beads were brought into proximity by the interactions between the SelK peptide and KLHDC2. Excitation of the donor beads by a laser beam of 680 nm promotes the formation of singlet oxygen. When an acceptor bead is in close proximity, the singlet oxygen reacts with thioxene derivatives in the acceptor beads and causes the emission of 615 nm photons, which are detected as the binding signal. […]
For orientation: Alpha assays give light when donor and acceptor beads are brought close together.
As to `CC(=CC(=O)N1CCN(C(=O)Cc2cnc3ncccn23)C2CC21)C(C)C` (stereo not shown) [Compound C1], the IC50 (as a rule, the concentration that inhibits the measured activity by half) is 488 µM.
In the case of `CN(Cc1cn(CC(=O)O)nn1)C(=O)CCCSc1ccc(Cl)cc1` [Compound C2.4], the IC50 stood at 10 µM.
In the case of `C=CCN(Cc1cn(CC(=O)O)nn1)C(=O)CSc1cc(C)ccc1C` [Compound C2.6], the IC50 was determined as 6.2 µM.
For the molecule `Cc1cc(C)c(C(=O)NCC(=O)NCc2cn(CC(=O)O)nn2)s1` [Compound C2.8], the IC50 was 1.1 µM.
As for `O=C(O)Cn1cc(CNC(=O)c2ccccc2SCC2CCCO2)nn1` (stereo not shown) [Compound C2.16], the IC50 was found to be 3.3 µM.
The same measure, in the same setting: under `C=CCN(Cc1cn(CC(=O)O)nn1)C(=O)CCSCc1ccccc1` [Compound C2.19] stands 3.4 µM; under `CC(NC(=O)CSCc1nc2ccccc2s1)c1cn(CC(=O)O)nn1` (stereo not shown) [Compound C2.20], 4.1 µM.
Consider `C[C@H]1CN(C(=O)C(OC(C)(C)C)C(C)(C)C)C[C@H]1NC(=O)CCn1ccnn1` (stereo partly shown) [Compound C4], for which the IC50 worked out at 2070 µM.
Take `CC1(C)CCCC(CC(=O)NC(C)(C)CNC(=O)c2ccnnc2S)C1` (stereo not shown) [Compound C6]: the IC50 amounted to 124 µM.
Take `Cc1cc(C(=O)NCCCn2cnnn2)c(C)n1Cc1ccccc1` [Compound C17]: the IC50 came to 121 µM.
On the same count and under the same terms, the figure for `COc1ccc(CN(C)C(=O)COC(=O)Cn2ccnn2)cc1OC` [Compound C18] is 377 µM.

In a further test the target is T3, hNaV1.7 channel (Homo sapiens, UniProt Q15858).
T3 construct: expressed in transfected cells
T3 sequence (Q15858 whole entry): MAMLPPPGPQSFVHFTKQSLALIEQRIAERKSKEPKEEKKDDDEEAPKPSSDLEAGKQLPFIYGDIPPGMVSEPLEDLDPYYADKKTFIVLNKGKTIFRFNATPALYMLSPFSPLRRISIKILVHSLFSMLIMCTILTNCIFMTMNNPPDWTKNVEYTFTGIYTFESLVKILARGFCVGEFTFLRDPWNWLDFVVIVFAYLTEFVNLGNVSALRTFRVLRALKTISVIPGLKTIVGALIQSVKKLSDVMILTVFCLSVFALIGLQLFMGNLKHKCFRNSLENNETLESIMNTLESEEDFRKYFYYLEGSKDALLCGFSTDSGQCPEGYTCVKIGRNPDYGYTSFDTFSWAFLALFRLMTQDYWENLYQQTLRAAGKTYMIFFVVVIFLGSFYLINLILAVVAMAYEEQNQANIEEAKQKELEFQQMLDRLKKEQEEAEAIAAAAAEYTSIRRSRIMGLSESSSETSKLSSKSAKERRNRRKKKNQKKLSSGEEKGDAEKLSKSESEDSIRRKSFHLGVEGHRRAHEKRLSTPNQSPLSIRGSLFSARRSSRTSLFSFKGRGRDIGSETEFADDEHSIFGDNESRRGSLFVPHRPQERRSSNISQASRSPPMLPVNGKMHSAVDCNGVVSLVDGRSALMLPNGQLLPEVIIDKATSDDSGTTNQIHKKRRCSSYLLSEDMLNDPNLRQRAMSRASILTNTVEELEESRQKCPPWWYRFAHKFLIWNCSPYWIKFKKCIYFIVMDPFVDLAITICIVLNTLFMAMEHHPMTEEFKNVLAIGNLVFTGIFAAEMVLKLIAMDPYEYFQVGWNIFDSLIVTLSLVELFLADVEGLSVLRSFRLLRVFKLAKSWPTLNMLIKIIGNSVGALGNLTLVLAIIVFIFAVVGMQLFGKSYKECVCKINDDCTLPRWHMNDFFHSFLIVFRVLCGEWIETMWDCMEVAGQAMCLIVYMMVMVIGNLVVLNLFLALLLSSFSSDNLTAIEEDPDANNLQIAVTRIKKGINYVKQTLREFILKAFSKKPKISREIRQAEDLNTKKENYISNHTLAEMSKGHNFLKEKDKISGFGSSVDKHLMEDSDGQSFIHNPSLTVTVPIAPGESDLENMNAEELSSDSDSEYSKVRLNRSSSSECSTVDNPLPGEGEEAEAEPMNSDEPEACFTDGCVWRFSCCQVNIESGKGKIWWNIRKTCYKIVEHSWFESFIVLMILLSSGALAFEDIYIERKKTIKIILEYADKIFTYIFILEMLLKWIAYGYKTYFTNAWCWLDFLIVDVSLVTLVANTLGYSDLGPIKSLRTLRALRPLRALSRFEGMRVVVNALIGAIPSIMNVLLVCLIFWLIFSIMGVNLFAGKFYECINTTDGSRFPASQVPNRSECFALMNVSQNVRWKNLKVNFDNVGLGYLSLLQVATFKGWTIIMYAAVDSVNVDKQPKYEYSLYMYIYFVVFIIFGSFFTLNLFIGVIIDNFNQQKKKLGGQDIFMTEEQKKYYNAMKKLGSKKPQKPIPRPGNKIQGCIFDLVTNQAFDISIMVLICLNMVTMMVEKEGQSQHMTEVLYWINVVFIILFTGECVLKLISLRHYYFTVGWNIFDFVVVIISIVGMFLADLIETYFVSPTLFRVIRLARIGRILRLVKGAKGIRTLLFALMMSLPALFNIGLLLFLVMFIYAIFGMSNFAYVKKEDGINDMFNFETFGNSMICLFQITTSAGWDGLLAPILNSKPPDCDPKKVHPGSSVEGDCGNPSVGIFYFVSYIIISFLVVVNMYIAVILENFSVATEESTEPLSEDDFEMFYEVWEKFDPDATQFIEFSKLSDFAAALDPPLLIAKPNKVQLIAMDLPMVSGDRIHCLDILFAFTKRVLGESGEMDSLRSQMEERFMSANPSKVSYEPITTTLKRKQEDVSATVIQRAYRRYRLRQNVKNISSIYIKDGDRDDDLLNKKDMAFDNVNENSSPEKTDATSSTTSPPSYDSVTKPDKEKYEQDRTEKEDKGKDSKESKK
Briefly: Whole-cell patch-clamp electrophysiology on hNaV1.7 stably expressed in HEK-293 cells. In kind it is cell-based. As to conditions: NaV1.7 inactivated state, -70 mV holding potential; mean; read-out: inactivated-state IC50. An excerpt:
We first clustered the top 100,000 ranked small molecules, then applied filters on the top 1000 cluster representative molecules. A total of 160 molecules that passed the clustering and filtering were examined manually. To ensure the chemical novelty of our selection, we specifically excluded molecules that contain the known arylsulfonamide warhead or structurally resemble antihistamines or beta-receptor blockers. Finally, ten molecules with Tanimoto similarities of less than 0.33 to the known inhibitors of NaV1.7 from the ChEMBL database[43],[44] were selected for synthesis. Of these, nine were successfully synthesized (Supplementary Fig. 16), and their activities were measured using the whole-cell patch-clamp electrophysiology assay on hNaV1.7 channel stably expressed in HEK-293 cells as described in Methods.
HEK-293 cells stably expressing human NaV1.5 and NaV1.7 were obtained from Dr. Chris Lossin (UC Davis, CA). HEK293 cells stably expressing HERG (hKv11.1) were a gift from Craig January (University of Wisconsin, Madison). Cells were cultured in complete DMEM supplemented with 10% FBS, 1% penicillin/streptomycin, and G418. All manual whole-cell patch-clamp recordings were performed at room temperature (22–24 °C) using an EPC-10 amplifier (HEKA Electronik, Lambrecht/Pfalz, Germany) on cells that were grown to 60–80% confluency, lifted with TrypLE, and plated onto poly-l-lysine–coated coverslips. External bath solution contains (in mM) 160 NaCl, 4.5 KCl, 2 CaCl2, 1 MgCl2, 10 HEPES (pH 7.4 and 305 mOsm) as. Patch pipettes were heat-pulled from soda lime glass (micro-hematocrit tubes, Kimble Chase, Rochester, NY) and had resistances of 2–3 MΩ when filled with an internal solution. Patch recordings of NaV1.5 and NaV1.7 channels were done using a cesium fluoride-based internal solution containing (in mM) 10 NaF, 110 CsF, 20 CsCl, 10 HEPES, 2 EGTA, (pH 7.4, 310 mOsm). Recordings of HERG channels were conducted using a potassium fluoride-based internal solution with added ATP (160 mM KF, 2 mM MgCl2, 10 mM EGTA, 10 mM HEPES, 4 mM NaATP, pH = 7.2 and 300–320 mOsm). Data acquisition and analysis were performed with Pulse-PulseFit (HEKA Electronik GmbH, Germany), IgorPro (WaveMetrics, Portland, OR), and Origin 9.0 software (OriginLab Corporation, Northampton, MA). To investigate specifically the inactivated state block of NaV1.7 and NaV1.5, holding potentials were set at the V1/2 of maximal inactivation (− 70 mV and − 80 mV, respectively) before voltage stepping to − 150 mV for 20 msec, and then 0 mV for 50 msec to elicit inward currents. Inhibition of currents in the resting state was recorded using a holding potential of − 120 mV. Control test currents were monitored for up to 5–10 min to ensure that the amplitude and kinetics of the response were stable. Series resistance was compensated to 80–90% and linear leak currents and capacitance artifacts were corrected using a P/4 subtraction method. The pulse interval was 0.1 Hz. For all experiments, stock solutions of the drugs were prepared fresh from 10 mM stocks in DMSO and test solutions prepared in external bath solutions were applied to individual cells into the recording bath. […] The percent reduction of HERG tail current amplitude by the compounds was determined. The percent of a block of tail current amplitude by the drugs was determined and data are shown as mean +/− SD (n = 3–4 per data point).
Consider `CC(C)=CCOc1ccc(CCC(C)NCC(O)CCC2CC2)cc1` (stereo not shown) [Compound Z8739905023, CC(CCC=1C=CC(OCC=C(C)C)=CC1)NCC(O)CCC2CC2], for which the IC50 was 2.3 µM.
